Test results as given in patent US12544359B2, “1-aminosulfonyl-2-carboxypyrrole derivatives as metallo-beta-lactamase inhibitors” (INFEX Therapeutics Limited, priority 2019, dated 2026).
Structures can show the parent of a compound that is named as a salt.

What was measured:
[1] = target: NDM-1 (Klebsiella pneumoniae, UniProt C7C422); test: metallo-β-lactamase inhibition assay (nitrocefin); assay type: biochemical; conditions: 1.5 nM NDM-1, 100 μM nitrocefin, 37° C., pH 7.5
Procedure: Compounds of the invention were tested in a metallo-β-lactamase inhibition assay to investigate mechanism of action of the compounds. Results are reported as the concentration of test article required to inhibit enzyme activity by 50% (IC50).
Inhibition of metallo-β-lactamase enzyme function was performed at 37° C. in buffer at pH 7.5 (50 mM HEPES, 150 mM NaCl, 0.1 mM ZnSO4, 20 μg/mL PEG4000), containing 1.5 nM NDM-1, 100 μM nitrocefin, and a range of concentrations of compound. Absorbance at 490 nm was measured using a BMG LABTECH FLUOstar Omega microplate reader every minute for 30 minutes. IC50s were determined from the average increase in OD per minute versus the Log 10 concentration of compound using GraphPad Prism.

[2] = Cytotoxicity Assay (CellTiter-Glo); assay type: cell-based; conditions: human, Hep G2 cells (ATCC HB-8065); 24 h exposure; read-out: HepG2 CC50
Procedure: Cytotoxicity was evaluated in human Hep G2 cells (ATCC HB-8065) seeded at a density of 2×10^5 cells per well and incubated for 24 h at 37° C., 5% CO2. Cells were exposed to a doubling dilution series of test article. After 24 h exposure, the viability of the cells was determined using CellTiter-Glo® (Promega, WI, USA) according to the manufacturer's instructions. Results are reported as the concentration of test article required to reduce cell viability by 50% (CC50).

Chain of NDM-1 (C7C422 whole entry, looked up, species assumed): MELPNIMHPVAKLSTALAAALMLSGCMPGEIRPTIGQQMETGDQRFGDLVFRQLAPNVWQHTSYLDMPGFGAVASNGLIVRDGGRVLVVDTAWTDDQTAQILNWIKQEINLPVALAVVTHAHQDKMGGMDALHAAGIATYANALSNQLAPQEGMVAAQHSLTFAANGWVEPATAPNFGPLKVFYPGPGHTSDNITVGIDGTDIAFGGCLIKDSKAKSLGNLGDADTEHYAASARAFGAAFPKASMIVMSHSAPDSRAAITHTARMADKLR

With NS(=O)(=O)n1ccc(-c2ccc(C(=O)NC3CCNCC3)cc2)c1C(=O)O [Example 36, 3-[4-(4-Piperidylcarbamoyl)phenyl]-1-sulfamoyl-pyrrole-2-carboxylic acid hydrochloride] the IC50 [1] was 410 nM and the CC50 at 24 h [2] was > 256 µg/mL.

For NCCC(=O)Nc1ccc(-c2ccn(S(N)(=O)=O)c2C(=O)O)cn1 [Example 94, 3-[6-(3-Aminopropanoylamino)-3-pyridyl]-1-sulfamoyl-pyrrole-2-carboxylic acid, sodium salt], the IC50 [1] was 2490 nM and the CC50 at 24 h [2] was > 256 µg/mL.

With CCNCCNC(=O)c1ccc(-c2ccn(S(N)(=O)=O)c2C(=O)O)cc1 [Example 32, 3-[4-[2-(Ethylamino)ethylcarbamoyl]phenyl]-1-sulfamoyl-pyrrole-2-carboxylic acid] the IC50 [1] was 1060 nM and the CC50 at 24 h [2] was > 256 µg/mL.

For NC1CN(C(=O)c2ccc(-c3ccn(S(N)(=O)=O)c3C(=O)O)cc2)C1 [Example 21, 3-[4-(3-Aminoazetidine-1-carbonyl)phenyl]-1-sulfamoyl-pyrrole-2-carboxylic acid], the IC50 [1] was 78 nM and the CC50 at 24 h [2] was > 256 µg/mL.

In the case of NS(=O)(=O)n1ccc(-c2ccc(C(=O)NCC(=O)O)cc2)c1C(=O)O [Example 7, 3-[4-(Carboxymethyl-carbamoyl)phenyl]-1-sulfamoyl-pyrrole-2-carboxylic acid], the IC50 [1] is reported as 650 nM and the CC50 at 24 h [2] is reported as > 256 µg/mL.

With NS(=O)(=O)n1ccc(CC2CCNCC2)c1C(=O)O [Example 57, 3-(4-Piperidylmethyl)-1-sulfamoyl-pyrrole-2-carboxylic acid hydrochloride] the CC50 at 24 h [2] was > 256 µg/mL.

With NS(=O)(=O)n1ccc(-c2ccc(C(=O)N3CCNCC3)cc2)c1C(=O)O [Example 27, 3-[4-(Piperazine-1-carbonyl)phenyl]-1-sulfamoyl-pyrrole-2-carboxylic acid] the IC50 [1] was 131 nM and the CC50 at 24 h [2] was > 256 µg/mL.

In the case of NS(=O)(=O)n1ccc(-c2ccc(C(=O)NC3CC3)cc2)c1C(=O)O [Example 3, 3-[4-(Cyclopropyl-carbamoyl)phenyl]-1-sulfamoyl-pyrrole-2-carboxylic acid], the CC50 at 24 h [2] is reported as > 256 µg/mL.

For CN(C)C(=O)c1ccc(-c2ccn(S(N)(=O)=O)c2C(=O)O)cc1 [Example 2, 3-[4-(Dimethylcarbamoyl)phenyl]-1-sulfamoyl-pyrrole-2-carboxylic acid], the IC50 [1] was 111 nM and the CC50 at 24 h [2] was > 256 µg/mL.

For NC1CN(C(=O)c2cccc(-c3ccn(S(N)(=O)=O)c3C(=O)O)c2)C1 [Example 31, 3-[3-(3-Aminoazetidine-1-carbonyl)phenyl]-1-sulfamoyl-pyrrole-2-carboxylic acid], the IC50 [1] was 3330 nM and the CC50 at 24 h [2] was > 256 µg/mL.

In the case of NS(=O)(=O)n1ccc(C2CCN(C(=O)C3CNC3)CC2)c1C(=O)O [Example 74, 3-[1-(Azetidine-3-carbonyl)-4-piperidyl]-1-sulfamoyl-pyrrole-2-carboxylic acid], the IC50 [1] is reported as 1550 nM and the CC50 at 24 h [2] is reported as > 256 µg/mL.

In the case of NS(=O)(=O)n1ccc(-c2ccc(C(=O)NC[C@@H](O)CO)cc2)c1C(=O)O [Example 13, 3-[4-[[(2R)-2,3-Dihydroxypropyl]carbamoyl]phenyl]-1-sulfamoyl-pyrrole-2-carboxylic acid], the IC50 [1] is reported as 566 nM and the CC50 at 24 h [2] is reported as > 256 µg/mL.

For NS(=O)(=O)n1ccc(-c2ccc(C(=O)NCCN3CCNC3=O)cc2)c1C(=O)O [Example 17, 3-[4-[2-(2-Oxoimidazolidin-1-yl)ethylcarbamoyl]phenyl]-1-sulfamoyl-pyrrole-2-carboxylic acid, ammonium salt], the IC50 [1] was 394 nM and the CC50 at 24 h [2] was > 256 µg/mL.

For CC(=O)N1CCC(Cc2ccn(S(N)(=O)=O)c2C(=O)O)CC1 [Example 62, 3-[(1-Acetyl-4-piperidyl)methyl]-1-sulfamoyl-pyrrole-2-carboxylic acid], the CC50 at 24 h [2] was > 256 µg/mL.

For CNC(=O)c1cccc(-c2ccn(S(N)(=O)=O)c2C(=O)O)c1 [Example 1, 3-[3-(Methylcarbamoyl)phenyl]-1-sulfamoyl-pyrrole-2-carboxylic acid], the IC50 [1] was 223 nM and the CC50 at 24 h [2] was > 256 µg/mL.

With NS(=O)(=O)n1ccc(-c2ccc(C(=O)N[C@@H]3CCNC[C@H]3O)cc2)c1C(=O)O [Example 38, 3-[4-[[(3R,4R)-3-Hydroxy-4-piperidyl]carbamoyl]phenyl]-1-sulfamoyl-pyrrole-2-carboxylic acid] the IC50 [1] was 652 nM and the CC50 at 24 h [2] was > 256 µg/mL.

With CC(=O)N1CCC(c2ccn(S(N)(=O)=O)c2C(=O)O)C1 (centres unmarked) [Example 59, 3-[1-Acetylpyrrolidin-3-yl]-1-sulfamoyl-pyrrole-2-carboxylic acid] the IC50 [1] was 1610 nM and the CC50 at 24 h [2] was > 256 µg/mL.

For NS(=O)(=O)n1ccc(-c2ccc(C(=O)NC3CNC3)cc2)c1C(=O)O [Example 35, 3-[4-(Azetidin-3-ylcarbamoyl)phenyl]-1-sulfamoyl-pyrrole-2-carboxylic acid], the IC50 [1] was 200 nM and the CC50 at 24 h [2] was > 256 µg/mL.

In the case of NCCNc1ccc(-c2ccn(S(N)(=O)=O)c2C(=O)O)cn1 [Example 95, 3-[6-(2-Aminoethylamino)-3-pyridyl]-1-sulfamoyl-pyrrole-2-carboxylic acid hydrochloride], the IC50 [1] is reported as 377 nM and the CC50 at 24 h [2] is reported as > 256 µg/mL.

For NCC(=O)N1CCCC(c2ccn(S(N)(=O)=O)c2C(=O)O)C1 (centres unmarked) [Example 63, 3-[1-(2-Aminoacetyl)-3-piperidyl]-1-sulfamoyl-pyrrole-2-carboxylic acid], the IC50 [1] was 1760 nM and the CC50 at 24 h [2] was > 256 µg/mL.

With NCCNC(=O)c1ccc(-c2ccn(S(N)(=O)=O)c2C(=O)O)cc1 [Example 26, 3-[4-(2-Aminoethyl-carbamoyl)phenyl]-1-sulfamoyl-pyrrole-2-carboxylic acid] the IC50 [1] was 420 nM and the CC50 at 24 h [2] was > 256 µg/mL.

With NCCNC(=O)c1cccc(-c2ccn(S(N)(=O)=O)c2C(=O)O)c1 [Example 47, 3-[3-(2-Aminoethylcarbamoyl)phenyl]-1-sulfamoyl-pyrrole-2-carboxylic acid hydrochloride] the IC50 [1] was 163 nM and the CC50 at 24 h [2] was > 256 µg/mL.

With NS(=O)(=O)n1ccc(-c2ccc(C(=O)NCCN3CCCC3=O)cc2)c1C(=O)O [Example 16, 3-[4-[2-(2-Oxopyrrolidin-1-yl)ethylcarbamoyl]phenyl]-1-sulfamoyl-pyrrole-2-carboxylic acid] the IC50 [1] was 623 nM and the CC50 at 24 h [2] was > 256 µg/mL.

For NC(=O)CNC(=O)c1ccc(-c2ccn(S(N)(=O)=O)c2C(=O)O)cc1 [Example 8, 3-[4-[(2-Amino-2-oxo-ethyl)carbamoyl]phenyl]-1-sulfamoyl-pyrrole-2-carboxylic acid], the IC50 [1] was 405 nM and the CC50 at 24 h [2] was > 128 µg/mL.

With NCC(=O)Nc1ccc(-c2ccn(S(N)(=O)=O)c2C(=O)O)cn1 [Example 93, 3-[6-[(2-Aminoacetyl)amino]-3-pyridyl]-1-sulfamoyl-pyrrole-2-carboxylic acid, sodium salt] the IC50 [1] was 162 nM and the CC50 at 24 h [2] was > 256 µg/mL.

For NS(=O)(=O)n1ccc(-c2ccc(C(=O)NCCCOS(=O)(=O)O)cc2)c1C(=O)O [Example 54, 1-Sulfamoyl-3-[4-(3-sulfooxypropylcarbamoyl)phenyl]pyrrole-2-carboxylic acid], the CC50 at 24 h [2] was > 256 µg/mL.

For N=C(N)NCC(=O)N1CCC(c2ccn(S(N)(=O)=O)c2C(=O)O)CC1 [Example 83, 3-[1-(2-Guanidinoacetyl)-4-piperidyl]-1-sulfamoyl-pyrrole-2-carboxylic acid], the CC50 at 24 h [2] was > 256 µg/mL.

Molecule CC(=O)N1CCCC(c2ccn(S(N)(=O)=O)c2C(=O)O)C1 (centres unmarked) [Example 58, 3-[1-Acetyl-3-piperidyl]-1-sulfamoyl-pyrrole-2-carboxylic acid] has an IC50 [1] of 433 nM.
